According to US20080317723A1, “LYMPHATIC ENDOTHELIAL CELLS MATERIALS AND METHODS” (VEGENICS LIMITED, priority 2001, published 2008):
Entries after “also recorded” stand apart in the source; their conditions may differ.

Columns and labels:
[1] = test system: CREB; assay: CREB Ser133 phosphorylation in HMVE cells, Western blot; format: cell-based, human; conditions: HMVE cells
Method: (§1) Western blot analysis. Endothelial cells were cultured on 35 mm dishes to near confluence, starved for 24 h in serum free medium and stimulated as indicated. Wortmannin ([…]), LY294002 ([…]), PD98059 (10-25 μM) or GF109203X (2.5-5 μM) were added 1-3 h before stimulation, where indicated. DMSO, into which the inhibitors were dissolved, was used as a control. After the stimulation, the cells were lysed in lysis buffer (50 mM HEPES, pH 7.5, 150 mM NaCl, 10 mM EDTA, 100 mM NaF, 1% TritonX-100 supplemented with 2 mM Na3VO4, 0.5 mM PMSF, 100 U/ml approtinin and 10 μg/ml leupeptin). Clarified lysates were separated by SDS-PAGE, transferred to nitrocellulose and immunoblotted using the phosphospecific antibodies for Akt-Ser473, Akt-Thr308, p42/44 MAPK-Thr202/Tyr204 or CREB-Ser133. The bound antibodies were detected using horseradish peroxidase conjugated secondary antibodies and enhanced chemiluminescence detection system. The blots were stripped and reprobed with antibodies against Akt, MAPK or CREB for quantification by reading the optical densities of the signals with Multi-Analyst 2.0.1 program (Bio-Rad).
(§2) The p42/p44 MAPK activation was detected by Western blotting using phospho-Thr202/Tyr204-MAPK specific antibodies and CREB phosphorylation using phospho-Ser133 specific antibodies. The growth factor concentrations used were: VEGF 10 ng/ml, VEGF-C 100 ng/ml and VEGF-C156S 500 ng/ml. […] Effects of inhibition of protein kinase C by GF109203X, MEK1 by PD98059 and PI-3 kinase by LY294002 on p42/p44 MAPK Thr202/Tyr204 phosphorylation, CREB Ser133 phosphorylation and Akt Ser473 phosphorylation in HMVE cells. The growth factor concentrations used were: VEGF 1 ng/ml, VEGF-C 10 ng/ml and VEGF-C156S 500 ng/ml

[2] = test system: p42/p44 MAPK; assay: p42/p44 MAPK Thr202/Tyr204 phosphorylation in HMVE cells, Western blot; format: cell-based, human; conditions: minimum growth factor concentrations giving maximal activation
Method: as §1, §2

[3] = target: mVEGFR-3 (Mus musculus, UniProt P35917); conditions: reference: Baldwin et al. 2001; cited from earlier work
[4] = target: mVEGFR-2 (Mus musculus, UniProt P35918); conditions: mVEGFR-2, monovalent; reference: Baldwin et al. 2001; cited from earlier work
mVEGFR-2, sequence (P35918 20-1345): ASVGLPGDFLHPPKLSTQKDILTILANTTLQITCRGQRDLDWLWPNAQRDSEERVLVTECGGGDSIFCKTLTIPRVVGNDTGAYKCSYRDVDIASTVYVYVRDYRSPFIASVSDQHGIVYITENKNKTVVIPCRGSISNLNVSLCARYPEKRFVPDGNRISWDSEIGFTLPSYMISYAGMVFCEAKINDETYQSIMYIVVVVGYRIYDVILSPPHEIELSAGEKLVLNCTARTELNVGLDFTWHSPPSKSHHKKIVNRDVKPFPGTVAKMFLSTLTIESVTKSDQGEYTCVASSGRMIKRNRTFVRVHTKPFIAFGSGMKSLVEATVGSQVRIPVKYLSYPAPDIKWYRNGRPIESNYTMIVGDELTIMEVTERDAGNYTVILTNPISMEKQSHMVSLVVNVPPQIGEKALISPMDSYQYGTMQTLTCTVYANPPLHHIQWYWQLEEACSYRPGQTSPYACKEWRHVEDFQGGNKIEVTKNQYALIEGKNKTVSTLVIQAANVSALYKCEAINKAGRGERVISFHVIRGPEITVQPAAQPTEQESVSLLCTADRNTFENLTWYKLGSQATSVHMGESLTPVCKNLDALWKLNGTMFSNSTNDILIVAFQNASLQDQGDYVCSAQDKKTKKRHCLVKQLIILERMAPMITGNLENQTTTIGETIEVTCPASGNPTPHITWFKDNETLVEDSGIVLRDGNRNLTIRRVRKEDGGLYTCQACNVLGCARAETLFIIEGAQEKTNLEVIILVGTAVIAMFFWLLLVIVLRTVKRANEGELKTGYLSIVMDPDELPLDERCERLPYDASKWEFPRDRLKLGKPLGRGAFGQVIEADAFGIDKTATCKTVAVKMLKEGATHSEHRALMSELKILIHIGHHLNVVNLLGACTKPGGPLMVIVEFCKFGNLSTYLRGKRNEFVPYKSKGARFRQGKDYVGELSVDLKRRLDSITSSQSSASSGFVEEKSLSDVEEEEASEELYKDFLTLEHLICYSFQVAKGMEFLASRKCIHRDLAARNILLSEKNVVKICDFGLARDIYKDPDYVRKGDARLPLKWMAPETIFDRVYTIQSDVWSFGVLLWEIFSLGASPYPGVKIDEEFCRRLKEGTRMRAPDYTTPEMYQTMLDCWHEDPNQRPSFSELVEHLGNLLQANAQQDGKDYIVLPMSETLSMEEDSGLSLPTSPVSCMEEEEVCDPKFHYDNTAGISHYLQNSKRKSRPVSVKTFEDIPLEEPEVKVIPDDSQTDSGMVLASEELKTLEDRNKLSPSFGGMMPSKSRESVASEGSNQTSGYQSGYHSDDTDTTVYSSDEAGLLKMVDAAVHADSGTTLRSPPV

mVEGFR-3, sequence (P35917 25-1363): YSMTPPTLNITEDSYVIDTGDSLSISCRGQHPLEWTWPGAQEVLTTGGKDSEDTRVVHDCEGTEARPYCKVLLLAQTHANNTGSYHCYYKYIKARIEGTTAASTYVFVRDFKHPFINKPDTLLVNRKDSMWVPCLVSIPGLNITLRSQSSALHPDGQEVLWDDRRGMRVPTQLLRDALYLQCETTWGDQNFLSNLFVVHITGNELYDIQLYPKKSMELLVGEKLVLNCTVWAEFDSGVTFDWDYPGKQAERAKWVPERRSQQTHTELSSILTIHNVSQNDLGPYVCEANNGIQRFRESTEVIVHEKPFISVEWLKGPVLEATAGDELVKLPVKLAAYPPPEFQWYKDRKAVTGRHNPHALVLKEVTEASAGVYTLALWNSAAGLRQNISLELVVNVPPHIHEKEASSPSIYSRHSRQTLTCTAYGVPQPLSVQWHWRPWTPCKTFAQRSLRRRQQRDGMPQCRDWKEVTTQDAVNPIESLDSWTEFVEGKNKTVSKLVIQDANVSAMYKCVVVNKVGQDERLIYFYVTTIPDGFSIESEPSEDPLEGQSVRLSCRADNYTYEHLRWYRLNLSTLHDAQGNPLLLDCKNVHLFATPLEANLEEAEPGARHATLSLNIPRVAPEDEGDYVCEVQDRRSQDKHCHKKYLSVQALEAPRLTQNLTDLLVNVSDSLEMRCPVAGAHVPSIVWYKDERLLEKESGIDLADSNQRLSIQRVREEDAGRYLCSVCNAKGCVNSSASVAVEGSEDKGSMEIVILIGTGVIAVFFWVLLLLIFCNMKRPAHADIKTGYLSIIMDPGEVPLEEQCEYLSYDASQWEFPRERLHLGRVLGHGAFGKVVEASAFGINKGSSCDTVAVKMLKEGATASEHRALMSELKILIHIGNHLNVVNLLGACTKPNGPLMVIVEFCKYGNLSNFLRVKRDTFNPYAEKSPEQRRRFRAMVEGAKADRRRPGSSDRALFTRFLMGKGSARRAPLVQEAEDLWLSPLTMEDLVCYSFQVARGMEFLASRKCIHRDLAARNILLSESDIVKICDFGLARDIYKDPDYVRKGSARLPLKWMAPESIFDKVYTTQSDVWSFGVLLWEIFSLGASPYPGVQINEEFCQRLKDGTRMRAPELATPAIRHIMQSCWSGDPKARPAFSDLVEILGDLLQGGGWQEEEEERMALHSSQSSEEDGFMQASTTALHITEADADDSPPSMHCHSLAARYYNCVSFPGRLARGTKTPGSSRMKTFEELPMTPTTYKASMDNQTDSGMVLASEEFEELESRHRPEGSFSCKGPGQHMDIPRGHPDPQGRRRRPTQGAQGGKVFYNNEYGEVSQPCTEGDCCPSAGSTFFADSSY

| Molecule | effect of inhibitor on VEGF induced CREB phosphorylation [1] | effect of inhibitor on VEGF-C induced CREB phosphorylation [1] | effect on p42/44 MAPK phosphorylation induced by VEGF, VEGF-C or VEGF-C156S [2] | Ka [3] [M⁻¹ s⁻¹] | KD [4] | Ka [4] | Kd [4] |
| --- | --- | --- | --- | --- | --- | --- | --- |
| N#CC(=C(/N)Sc1ccccc1N)/C(C#N)=C(\N)Sc1ccccc1N [U0126] | but not VEGF induced CREB phosphorylation | inhibited VEGFC | – | – | – | – | – |
| COc1cccc(-c2cc(=O)c3ccccc3o2)c1N [PD98059] | but not VEGF induced CREB phosphorylation; also recorded: did not inhibit VEGF induced CREB phosphorylation | inhibited VEGFC; also recorded: decreased phosphorylation of CREB upon VEGFC stimulation | – | – | – | – | – |
| CN(C)CCCn1cc(C2=C(c3c[nH]c4ccccc34)C(=O)NC2=O)c2ccccc21 [GF109203X, Bisindolylmaleimide I] | completely blocked | completely blocked | completely blocked | – | – | – | – |
| mVEGF-D: mature form of mouse VEGF-D, data from Baldwin et al. 2001 (protein, UniProt P97946 94-210, looked up) Vascular endothelial growth …: FAATFYDTETLKVIDEEWQRTQCSPRETCVEVASELGKTTNTFFKPPCVNVFRCGGCCNEEGVMCMNTSTSYISKQLFEISVPLTSVPELVPVKIANHTGCKCLPTGPRHPYSIIRR | – | – | – | 8000 | no binding | no binding | no binding |
